Assay results reported in patent publication US8158628B2, “Sulfonylated 1,2,3,4-tetrahydropyrrolo[1,2-a]pyrazine compounds and their use as pharmaceuticals” (Gruenenthal GmbH, priority 2009, dated 2012).

Experiments:
B1R of the rat = target: T1, B1R of the rat (Rattus norvegicus, UniProt P97583); experiment: FLIPR Ca2+ functional assay, B1R antagonism, rat B1R in CHO K1 cells; format: cell-based; conditions: test substance 10 μM; rB1R CHO K1 cells; agonist Des-Arg9 bradykinin at EC80; % of maximum achievable inhibition
T1 construct: expressed in transfected cells; host or cells: CHO K1 cells (Chinese hamster ovary), stably transfected
T1 sequence (P97583 1-337): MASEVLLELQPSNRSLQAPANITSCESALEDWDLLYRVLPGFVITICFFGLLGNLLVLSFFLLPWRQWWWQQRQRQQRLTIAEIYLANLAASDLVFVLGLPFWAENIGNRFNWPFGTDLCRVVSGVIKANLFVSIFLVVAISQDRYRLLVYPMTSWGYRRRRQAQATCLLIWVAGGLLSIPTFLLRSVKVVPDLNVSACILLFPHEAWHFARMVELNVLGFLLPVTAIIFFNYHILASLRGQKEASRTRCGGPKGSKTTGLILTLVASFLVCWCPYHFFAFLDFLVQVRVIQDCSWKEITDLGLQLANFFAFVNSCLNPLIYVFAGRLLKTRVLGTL
In short: (§1)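 IC50 values come from varied compound concentrations applied 10-20 min before an EC80 agonist challenge, with Des-Arg9 bradykinin for rat and Lys-Des-Arg9 bradykinin for human receptor. Ca2+ influx in Fluo-4-loaded CHO K1 transfectants was measured by FLIPR peak fluorescence. Data are % inhibition vs maximum, n=2-3, N>=2.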

human B1R = target: T2, human B1R (Homo sapiens, UniProt P46663); experiment: FLIPR Ca2+ functional assay, B1R antagonism, human B1R in CHO K1 cells; format: cell-based; conditions: test substance 10 μM; hB1R CHO K1 cells; agonist Lys-Des-Arg9 bradykinin at EC80; % of maximum achievable inhibition
T2 construct: expressed in transfected cells; host or cells: CHO K1 cells (Chinese hamster ovary), stably transfected
T2 sequence (P46663 1-353): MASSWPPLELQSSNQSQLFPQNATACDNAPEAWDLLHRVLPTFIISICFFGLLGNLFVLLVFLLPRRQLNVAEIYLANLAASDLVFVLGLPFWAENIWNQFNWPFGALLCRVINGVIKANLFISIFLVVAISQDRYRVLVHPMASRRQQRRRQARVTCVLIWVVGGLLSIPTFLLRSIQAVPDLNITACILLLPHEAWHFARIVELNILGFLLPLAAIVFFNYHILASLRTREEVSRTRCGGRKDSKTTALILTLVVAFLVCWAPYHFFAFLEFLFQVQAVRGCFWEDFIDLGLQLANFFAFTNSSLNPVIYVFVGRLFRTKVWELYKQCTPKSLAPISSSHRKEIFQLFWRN
In short: as §1

Structure (SMILES)	inhibition at 10 µM (B1R of the rat)	inhibition at 10 µM (human B1R)
Cc1ccc(S(=O)(=O)N2CCn3cccc3C2CC(=O)NC2CCc3cc(CNC(C)(C)C)ccc3C2)cc1 (centres unmarked) [Example 122, N-[6-[(tert-Butylamino)-methyl]-1,2,3,4-tetrahydro-naphthalen-2-yl]-2-[2-(p-tolylsulfonyl)-1,2,3,4-tetrahydro-pyrrolo[1,2-a]pyrazin-1-yl]-acetamide]	101%	99.6%
Cc1ccc(S(=O)(=O)N2CCn3cccc3C2CC(=O)NC2CCc3cc(CN4CCCC4)ccc3C2)cc1 (centres unmarked) [Example 123, 2-[2-(p-Tolylsulfonyl)-1,2,3,4-tetrahydro-pyrrolo[1,2-a]pyrazin-1-yl]-N-[6-(pyrrolidin-1-yl-methyl)-1,2,3,4-tetrahydro-naphthalen-2-yl]-acetamide]	101%	100%
CN(C)Cc1ccc2c(c1)CCCC2NC(=O)CC1c2cccn2CCN1S(=O)(=O)c1cccc(C(F)(F)F)c1 (centres unmarked) [Example 124, N-[6-(Dimethylaminomethyl)-1,2,3,4-tetrahydro-naphthalen-1-yl]-2-[2-[[3-(trifluoromethyl)phenyl]sulfonyl]-1,2,3,4-tetrahydro-pyrrolo[1,2-a]pyrazin-1-yl]-acetamide]	97.3%	99.7%
CCC(C)NCc1ccc2c(c1)CCCC2NC(=O)CC1c2cccn2CCN1S(=O)(=O)c1ccc2cc(OC)ccc2c1 (centres unmarked) [Example 125, 2-[2-[(6-Methoxy-naphthalen-2-yl)sulfonyl]-1,2,3,4-tetrahydro-pyrrolo[1,2-a]pyrazin-1-yl]-N-[6-[(1-methyl-propylamino)-methyl]-1,2,3,4-tetrahydro-naphthalen-1-yl]-acetamide]	99.1%	99.6%
CCC(C)NCc1ccc2c(c1)CCCC2NC(=O)CC1c2cccn2CCN1S(=O)(=O)c1ccc(C)cc1 (centres unmarked) [Example 126, N-[6-[(1-Methyl-propylamino)-methyl]-1,2,3,4-tetrahydro-naphthalen-1-yl]-2-[2-(p-tolylsulfonyl)-1,2,3,4-tetrahydro-pyrrolo[1,2-a]pyrazin-1-yl]-acetamide]	102%	99.9%
Cc1ccc(S(=O)(=O)N2CCn3cccc3C2CC(=O)NC2CCCc3cc(CNCc4ccccc4)ccc32)cc1 (centres unmarked) [Example 127, N-[6-[(Benzylamino)-methyl]-1,2,3,4-tetrahydro-naphthalen-1-yl]-2-[2-(p-tolylsulfonyl)-1,2,3,4-tetrahydro-pyrrolo[1,2-a]pyrazin-1-yl]-acetamide]	101%	97.4%
COc1ccc2cc(S(=O)(=O)N3CCn4cccc4C3CC(=O)NC3CCCc4cc(CN5CCCCC5)ccc43)ccc2c1 (centres unmarked) [Example 128, 2-[2-[(6-Methoxy-naphthalen-2-yl)sulfonyl]-1,2,3,4-tetrahydro-pyrrolo[1,2-a]pyrazin-1-yl]-N-[6-(piperidin-1-yl-methyl)-1,2,3,4-tetrahydro-naphthalen-1-yl]-acetamide]	103%	99.8%
Cc1ccc(S(=O)(=O)N2CCn3cccc3C2CC(=O)NC2CCCc3cc(CN4CCCc5ccccc54)ccc32)cc1 (centres unmarked) [Example 129, 2-[2-(p-Tolylsulfonyl)-1,2,3,4-tetrahydro-pyrrolo[1,2-a]pyrazin-1-yl]-N-[6-(1,2,3,4-tetrahydro-quinolin-1-yl-methyl)-1,2,3,4-tetrahydro-naphthalen-1-yl]-acetamide]	74.7%	46.1%
COc1ccc2cc(S(=O)(=O)N3CCn4cccc4C3CC(=O)NC3CCCc4cc(CN5CCCc6ccccc65)ccc43)ccc2c1 (centres unmarked) [Example 130, 2-[2-[(6-Methoxy-naphthalen-2-yl)sulfonyl]-1,2,3,4-tetrahydro-pyrrolo[1,2-a]pyrazin-1-yl]-N-[6-(1,2,3,4-tetrahydro-quinolin-1-yl-methyl)-1,2,3,4-tetrahydro-naphthalen-1-yl]-acetamide]	98.8%	73.6%
CCC(C)NCc1ccc2c(c1)CCCC2NC(=O)CC1c2cccn2CCN1S(=O)(=O)c1cccc(C(F)(F)F)c1 (centres unmarked) [Example 131, N-[6-[(1-Methyl-propylamino)-methyl]-1,2,3,4-tetrahydro-naphthalen-1-yl]-2-[2-[[3-(trifluoromethyl)phenyl]sulfonyl]-1,2,3,4-tetrahydro-pyrrolo[1,2-a]pyrazin-1-yl]-acetamide]	101%	99.8%
CCC(C)NCc1ccc2c(c1)CCCC2NC(=O)CC1c2cccn2CCN1S(=O)(=O)c1ccc(C)c(Cl)c1 (centres unmarked) [Example 132, 2-[2-[(3-Chloro-4-methyl-phenyl)sulfonyl]-1,2,3,4-tetrahydro-pyrrolo[1,2-a]pyrazin-1-yl]-N-[6-[(1-methyl-propylamino)-methyl]-1,2,3,4-tetrahydro-naphthalen-1-yl]-acetamide]	102%	99.8%
CNCc1ccc2c(c1)CCCC2NC(=O)CC1c2cccn2CCN1S(=O)(=O)c1ccc(C)cc1 (centres unmarked) [Example 133, N-[6-(Methylamino-methyl)-1,2,3,4-tetrahydro-naphthalen-1-yl]-2-[2-(p-tolylsulfonyl)-1,2,3,4-tetrahydro-pyrrolo[1,2-a]pyrazin-1-yl]-acetamide]	104%	99.4%
CNCc1ccc2c(c1)CCCC2NC(=O)CC1c2cccn2CCN1S(=O)(=O)c1ccc2cc(OC)ccc2c1 (centres unmarked) [Example 134, 2-[2-[(6-Methoxy-naphthalen-2-yl)sulfonyl]-1,2,3,4-tetrahydro-pyrrolo[1,2-a]pyrazin-1-yl]-N-[6-(methylamino-methyl)-1,2,3,4-tetrahydro-naphthalen-1-yl]-acetamide]	103%	99.8%
CNCc1ccc2c(c1)CCCC2NC(=O)CC1c2cccn2CCN1S(=O)(=O)c1cccc(C(F)(F)F)c1 (centres unmarked) [Example 135, N-[6-(Methylamino-methyl)-1,2,3,4-tetrahydro-naphthalen-1-yl]-2-[2-[[3-(trifluoromethyl)phenyl]sulfonyl]-1,2,3,4-tetrahydro-pyrrolo[1,2-a]pyrazin-1-yl]-acetamide]	104%	99.6%
CNCc1ccc2c(c1)CCCC2NC(=O)CC1c2cccn2CCN1S(=O)(=O)c1ccc(C)c(Cl)c1 (centres unmarked) [Example 136, 2-[2-[(3-Chloro-4-methyl-phenyl)sulfonyl]-1,2,3,4-tetrahydro-pyrrolo[1,2-a]pyrazin-1-yl]-N-[6-(methylamino-methyl)-1,2,3,4-tetrahydro-naphthalen-1-yl]-acetamide]	-29.2%	99.7%
CNCc1ccc2c(c1)CCC(NC(=O)CC1c3cccn3CCN1S(=O)(=O)c1ccc3cc(OC)ccc3c1)C2 (centres unmarked) [Example 137, 2-[2-[(6-Methoxy-naphthalen-2-yl)sulfonyl]-1,2,3,4-tetrahydro-pyrrolo[1,2-a]pyrazin-1-yl]-N-[6-(methylamino-methyl)-1,2,3,4-tetrahydro-naphthalen-2-yl]-acetamide]	104%	99.7%
CNCc1ccc2c(c1)CCC(NC(=O)CC1c3cccn3CCN1S(=O)(=O)c1ccc(C)c(Cl)c1)C2 (centres unmarked) [Example 138, 2-[2-[(3-Chloro-4-methyl-phenyl)sulfonyl]-1,2,3,4-tetrahydro-pyrrolo[1,2-a]pyrazin-1-yl]-N-[6-(methylamino-methyl)-1,2,3,4-tetrahydro-naphthalen-2-yl]-acetamide]	103%	99.8%
CNCc1ccc2c(c1)CCC(NC(=O)CC1c3cccn3CCN1S(=O)(=O)c1cccc(C(F)(F)F)c1)C2 (centres unmarked) [Example 139, N-[6-(Methylamino-methyl)-1,2,3,4-tetrahydro-naphthalen-2-yl]-2-[2-[[3-(trifluoromethyl)phenyl]sulfonyl]-1,2,3,4-tetrahydro-pyrrolo[1,2-a]pyrazin-1-yl]-acetamide]	103%	99.1%
CNCc1ccc2c(c1)CCC(NC(=O)CC1c3cccn3CCN1S(=O)(=O)c1ccc(C)cc1)C2 (centres unmarked) [Example 140, N-[6-(Methylamino-methyl)-1,2,3,4-tetrahydro-naphthalen-2-yl]-2-[2-(p-tolylsulfonyl)-1,2,3,4-tetrahydro-pyrrolo[1,2-a]pyrazin-1-yl]-acetamide]	102%	96.1%
